# From patent US12697376B2, “Cationic lipid compounds” (Guangzhou Anobri Pharmaceutical Co. Ltd., priority 2021, dated 2026)
# Assays:
# [1] = Determination of the pKa of the cationic lipid in lipid nanoparticles by TNS fluorescence; format: physicochemical; details: probe 2-(p-toluidine)-6-naphthalenesulfonic acid (TNS), 1 uM final, cationic lipid in LNP (cationic lipid/DSPC/cholesterol/PEG lipid 50/10/38/2 mol %), pH of half-maximal fluorescence
# Method: (§1) Cationic lipids, DSPC, cholesterol, and PEG-lipids were dissolved in ethanol in molar ratios of 50:10:38:2 or 48:10:40:2. Lipid nanoparticles (LNPs) were prepared in a ratio of total lipid to mRNA by weight of about 10:1 to 30:1. Briefly, mRNA was diluted to 0.15 mg/ml in 10 to 50 ml of citrate buffer (pH=4). Using a syringe pump, an ethanolic solution of lipids was mixed with an aqueous mRNA solution in a ratio of approximately 1:5 to 1:3 by volume at a total flow rate of over 10 ml/min. Ethanol was then removed and the external buffer was replaced by dialysis-class PBS. Finally, the lipid nanoparticles were filtered through a sterile filter with a pore size of 0.2 um. The particle size of the lipid nanoparticles was approximately 65-105 nm in diameter and, in some cases, approximately 75-100 nm in diameter, determined by quasi-elastic light scattering using Malvern Zetasizer Nano ZS.
# The pKa of the formulated cationic lipid correlates with the effectiveness of the LNP for nucleic acid delivery. The preferred pKa range is from 5 to 7. The pKa of each cationic lipid was determined in lipid nanoparticles using an analysis based on the fluorescence of 2-(p-toluidine)-6-naphthalenesulfonic acid (TNS). Lipid nanoparticles containing cationic lipids/DSPC/cholesterol/PEG lipids (50/10/38/2 mol %) at a concentration of 0.4 mM total lipid in PBS were prepared using an ordered method as described in Example 10. TNS was prepared as a 100 μM stock solution in distilled water. The vesicles were diluted to contain 24 uM lipid in a 2 mL buffer solution containing 10 mM HEPES, 10 mM MES, 10 mM acetic acid, and 130 mM NaCl, pH 2.5-11. Aliquots of 100 μM TNS stock solution were added to bring the final concentration to 1 uM. After vortex mixing, fluorescence intensity was measured in an SLM Aminco Series 2 luminescence spectrophotometer at room temperature using excitation and emission wavelengths of 321 nm and 445 nm. Fluorescence data were analyzed using a s-shaped curve fitting and pKa was determined by measuring the pH that produced half-maximal fluorescence intensity.
# [2] = tested on: luciferase expression in the liver; test: In vivo luciferase mRNA expression in liver after tail vein injection of FLuc mRNA lipid nanoparticles; parameters: species or system mice; details: liver 5 hours after administration, LNP 50% cationic lipid/10% DSPC/38% cholesterol/2% PEG-DMG; for Liver Luc @ 0.3 mg/kg dose: 0.3 mg mRNA/kg; for Liver Luc @ 1.0 mg/kg dose: 1.0 mg mRNA/kg
# Method: as §1
# According to the guidelines set by the State Scientific and Technological Commission of The People's Republic of China, female C57BL/6 mice aged 6-8 weeks and CD-1 mice aged 8-10 weeks were used to perform the study. Various doses of mRNA lipid nanoparticles were administered by intravenous injection and the animals were euthanized at specific time points (e.g., 5 hours) post-administration. The liver and spleen were collected, weighed, immediately frozen in liquid nitrogen, and stored at −80° C. until being used for analysis.
# For the liver, approximately 50 mg of liver tissue was cut and placed in 2 mL FastPrep tubes (MP Biomedicals, Solon OH) for analysis. ¼″ ceramic beads (MP Biomedicals) and 500 μL of room temperature Glo Lysis Buffer-GLB (Promega, Madison WI) were then added to each tube. The liver tissue was then homogenized for 15 seconds at a speed of 2×6.0 m/s using a FastPrep24 instrument (MP Biomedicals). The homogenates were incubated at room temperature for 5 minutes, then diluted with GLB in a ratio of 1:4, and finally evaluated using the SteadyGlo luciferase assay system (Promega). Specifically, 50 μL of diluted tissue homogenate was mixed with 50 μL of SteadyGlo substrate. The mixture was shaken for 10 seconds, then incubated at room temperature for 5 minutes, and subsequently quantified using a SpectraMAX_L chemiluminescent plate reader (Meigu Molecular Instrument (Shanghai) Co., Ltd.). The amount of protein was measured by using the BCA Protein Quantitation Kit (Shanghai Colorless Medical Technology Co., Ltd.). Relative luminescence units (RLU) were normalized to the total ug of the measured protein. To convert RLU into μg luciferase, a standard curve was generated using QuantiLum recombinant luciferase (Promega).
# FLuc mRNA (L-6107) from Trilink Biotechnologies, which was originally isolated from fireflies (Photinus pyralis), will express luciferase protein. Fluc is commonly used in mammalian cell cultures to measure gene expression and cell viability. It emits biological light in the presence of the substrate luciferin. This capped and polyadenylated mRNA was completely replaced by 5-methylcytidine and pseudouridine.
# For comparison purposes, these lipids were also used to formulate lipid nanoparticles containing FLuc mRNA (L-6107) using an ordered mixing method, as described in Example 10. Lipid nanoparticles were formulated with the following molar ratio: 50% cationic lipid/10% distearylphosphatidylcholine (DSPC)/38% cholesterol/2% PEG lipid (“PEG-DMG”, i.e., (1-(monomethoxy-polyethylene glycol)-2,3-dimyristoylglycerol, average PEG molecular weight 2000). As described in Example 10, relative activity was determined by measuring luciferase expression in the liver 5 hours after administration via tail vein injection. The activity was compared at doses of 0.3 and 1.0 mg mRNA/kg and expressed as ng luciferase/g liver measured 5 hours after administration as described in Example 10.
SMILES,pKa [1],Liver Luc @ 0.3 mg/kg dose [2],Liver Luc @ 1.0 mg/kg dose [2]
CCCCCCCCC(CCCCCC)C(=O)OCCCCCCN(CCCCO)CCCCCCOC(=O)C(C)(CCCCCC)CCCCCCCC (stereo not drawn) [Compound 1],6.25,1424 ± 265 ng luciferase/g liver,10318 ± 1304 ng luciferase/g liver
CCCCCCCCC(CCCCCC)C(=O)OCCCCCCN(CCCCO)CCCCCCOC(=O)C(CC)(CCCCCC)CCCCCCCC (stereo not drawn) [Compound 2],5.91,1469 ± 294 ng luciferase/g liver,10671 ± 1912 ng luciferase/g liver
CCCCCCCCC(CCCCCC)C(=O)OCCCCCCN(CCCCO)CCCCCCOC(=O)C(CCC)(CCCCCC)CCCCCCCC (stereo not drawn) [Compound 3],6.22,961 ± 469 ng luciferase/g liver,6917 ± 642 ng luciferase/g liver
CCCCCCCCC(C)(CCCCCC)C(=O)OCCCCCCN(CCCCO)CCCCCCOC(=O)C(C)(CCCCCC)CCCCCCCC (stereo not drawn) [Compound 4],6.12,1179 ± 362 ng luciferase/g liver,8630 ± 824 ng luciferase/g liver

# Further lines, with some results ahead:
pKa [1],SMILES,Liver Luc @ 0.3 mg/kg dose [2],Liver Luc @ 1.0 mg/kg dose [2]
5.89,CCCCCCCCC(C)(CCCCCC)C(=O)OCCCCCCN(CCCCO)CCCCCCOC(=O)C(CC)(CCCCCC)CCCCCCCC (stereo not drawn) [Compound 5],1424 ± 289 ng luciferase/g liver,10372 ± 2096 ng luciferase/g liver
6.13,CCCCCCCCC(C)(CCCCCC)C(=O)OCCCCCCN(CCCCO)CCCCCCOC(=O)C(CCC)(CCCCCC)CCCCCCCC (stereo not drawn) [Compound 6],1628 ± 432 ng luciferase/g liver,11753 ± 2598 ng luciferase/g liver
6.08,CCCCCCCCC(CC)(CCCCCC)C(=O)OCCCCCCN(CCCCO)CCCCCCOC(=O)C(CC)(CCCCCC)CCCCCCCC (stereo not drawn) [Compound 7],1218 ± 359 ng luciferase/g liver,8914 ± 1487 ng luciferase/g liver
5.98,CCCCCCCCC(CC)(CCCCCC)C(=O)OCCCCCCN(CCCCO)CCCCCCOC(=O)C(CCC)(CCCCCC)CCCCCCCC (stereo not drawn) [Compound 8],985 ± 625 ng luciferase/g liver,7188 ± 942 ng luciferase/g liver
6.05,CCCCCCCCC(CCC)(CCCCCC)C(=O)OCCCCCCN(CCCCO)CCCCCCOC(=O)C(CCC)(CCCCCC)CCCCCCCC (stereo not drawn) [Compound 9],1138 ± 265 ng luciferase/g liver,8443 ± 1045 ng luciferase/g liver
